Experimental data as given in PMC7211193, “Evaluation of absorption, distribution, metabolism, and excretion of [^14C]-rucaparib, a poly(ADP-ribose) polymerase inhibitor, in patients with advanced solid tumors” (Investigational New Drugs, 2019).
Values joined by “and” are separate entries in the source; they are usually repeats but may differ in a detail not shown here. Equal values may be shown once.

Assay: Total radioactivity (TRA) pharmacokinetics in plasma and blood by liquid scintillation counting
Assay type: in vivo, human
Details: for Cmax, total radioactivity in plasma: patients N = 6
Experimental: Six patients received a single oral dose of [^14C]-rucaparib 600 mg (approximately 5.18 MBq or 140 μCi) on day 1 after fasting for 10 h and were confined at the study site for the collection of blood samples and excreta for a maximum of 12 days.
Blood samples were collected in K2 ethylenediaminetetraacetic acid (K2-EDTA) tubes at the following time points: 0 (predose), 1, 2, 3, 4, 8, 12, 24, 48, 72, 96, 120, and 144 h after administration. Blood samples were taken via an indwelling intravenous catheter or by direct vein puncture into appropriate tubes. Aliquots of blood samples were centrifuged at 1600–2000×g for 10 min at 4 °C, and supernatants were collected for plasma samples. All plasma and blood samples were stored at −70 °C until analysis. Plasma and blood samples were evaluated for total radioactivity (TRA) by liquid scintillation (LSC), parent drug concentrations by liquid chromatography (LC) with tandem mass spectrometry (MS/MS) analyses, and metabolite profiling by LC coupled to diode array ultraviolet (UV) detection and MS or radioactivity detection.
TRA analysis was performed on a Liquid Scintillation Counter Tri-Carb Model 3100TR (PerkinElmer). Aliquots of blood (300 μL), plasma (250 μL), and urine (1 mL) were transferred to scintillation vials. Blood samples were incubated at ≥60 °C with SOLVABLE (1 mL). After cooling to room temperature, EDTA (0.1 M, 100 μL) and hydrogen peroxide (225 μL) were added to dissolve blood cells, reduce foaming, and decrease color intensity. Finally, after incubation at ≥45 °C and ≥60 °C, Ultima Gold (≥5-fold) was added, and the samples were analyzed with LSC. For urine samples, Ultima Gold (≥5-fold) was added, and the samples were analyzed with LSC.
Blood and plasma TRA data and the plasma concentration of rucaparib were used to determine the Cmax, tmax, AUC from time zero to time of last measurable concentration (AUC0-t), and AUC from time zero to infinity (AUC0-inf), apparent volume of distribution (Vd/F), apparent clearance (CL/F), and terminal half-life (t1/2). Phoenix WinNonlin software version 6.3 or higher (Certara, Princeton, NJ, USA) was used to run a noncompartmental method analysis on the PK data.

[1] = single oral [14C]-rucaparib 600 mg, N = 6, mean ± SD
[2] = single oral [14C]-rucaparib 600 mg, N = 6, mean ± SD, listed as rucaparib
[3] = single oral [14C]-rucaparib 600 mg, N = 6, median (range)

In the case of `CNCc1ccc(-c2[nH]c3cc(F)cc4c3c2CCNC4=O)cc1` [Rucaparib, rucaparib], the “AUC0-24h/AUC0-inf ratio, blood TRA” value (in vivo) is reported as 0.563, the “AUC0-24h/AUC0-inf ratio, plasma TRA” value (in vivo) is reported as 0.461 and the “AUC0-inf, total radioactivity in blood” value [1] is reported as 25,500 ± 5510 ng Eq h/mL. The “AUC0-inf, total radioactivity in plasma” value [1] was 30,000 ± 7810 ng Eq h/mL, the “AUC0-t, total radioactivity in blood” value [1] was 18,100 ± 5460 ng Eq h/mL and the “AUC0-t, total radioactivity in plasma” value [1] was 24,100 ± 8580 ng Eq h/mL. For the same compound, the “Blood to plasma ratio of total radioactivity, AUC0-inf” value [1] was 0.781 ± 0.041, the “Blood to plasma ratio of total radioactivity, Cmax” value [1] was 1.00 ± 0.12 and the “CL/F, total radioactivity in blood” value [1] was 22.6 ± 2.22 L/h. For the same compound, the “CL/F, total radioactivity in plasma” value [1] was 19.6 ± 4.83 L/h, the “Cmax, total radioactivity in blood” value [1] was 882 ± 355 ng Eq/mL and the “Vd/F, total radioactivity in blood” value [1] was 911 ± 246 L. The “Vd/F, total radioactivity in plasma” value [1] was 814 ± 129 L, the “t1/2, total radioactivity in blood” value [1] was 28.3 ± 8.49 h and the “t1/2, total radioactivity in plasma” value [1] was 30.4 ± 8.89 h. The “Blood to plasma ratio of total radioactivity, Cmax” value [2] was 1.0, the “t1/2, total radioactivity in blood” value [2] was > 25 h and the “t1/2, total radioactivity in plasma” value [2] was > 25 h and 30.4 h. For the same compound, the “tmax, total radioactivity in blood” value [3] was 4 (0.933–8.00) h, the “tmax, total radioactivity in plasma” value [3] was 4 (0.933–8.00) h and the “tmax, total radioactivity in blood” value (single oral [14C]-rucaparib 600 mg, N = 6, median (range), listed as [^14C]-rucaparib) was “approximately 4 h”. For the same compound, the “tmax, total radioactivity in blood” value (single oral [14C]-rucaparib 600 mg, N = 6, median (range), listed as rucaparib) was 4 h, the “Cmax, total radioactivity in plasma” value (single oral [14C]-rucaparib 600 mg, mean ± SD) was 880 ± 309 ng Eq/mL and the “Cmax, total radioactivity in plasma” value (single oral [14C]-rucaparib 600 mg, mean ± SD, listed as rucaparib) was 880 ng Eq/mL.
